A word on the MIC: it is the least concentration at which growth counts as inhibited. Lower therefore signals inhibition by little substance.

Common to all, as to type: cell-based
The subject of experiment [1] is Staphylococcus aureus (43330). Put plainly: MIC, broth microdilution (CLSI), Staphylococcus aureus (43330). The settings on record: pH 3, 18 to 24 hours. As to the method: (§1) MIC testing is conducted using the broth (Mueller Hinton Broth) microdilution procedures relevant to each organism group as established by the Clinical and Laboratory Standards Institute (CLSI; 3-7). MIC plates are prepared in accordance with CLSI (3-7). To prepare the test plates, automated liquid handlers are used to conduct serial dilutions and liquid transfers. Automated liquid handlers utilized in this study include the Multidrop 384 (Labsystems, Helsinki, Finland) and the Biomek 2000 (Beckman Coulter, Fullerton CA). The solution is diluted to desired pH using 1 M Citric Acid or 1 M NaOH buffer. A standardized inoculum of each test organism is prepared per CLSI methods (3, 5-7) to equal a 0.5 McFarland standard in the appropriate media followed by an additional 1:20 dilution (1:10 for anaerobes).
(§2) The plates are then inoculated with 10 μL of the diluted 0.5 McFarland suspension using the Biomek 2000 from low to high drug concentration, resulting in a final concentration of approximately 5×10^5 CFU/mL per well. An un-inoculated plate is incubated for the purpose of assessing solubility of the drug in the test media. The plates are stacked 3 to 4 high, covered with a sterile lid on the top plate, and incubated for 18 to 24 hours according to CLSI. The MIC is recorded as the lowest concentration of respective compound that inhibited visible growth of the organism.

For experiment [2], the system named is Escherichia coli (25922). Description: MIC, broth microdilution (CLSI), Escherichia coli (25922). The settings on record: pH 3, 18 to 24 hours. As to the method:
as §1, §2
A general note: In broth dilution the organism is exposed to a series of concentrations in liquid medium.

In experiment [3] the test system is Pseudomonas aeruginosa (27853). Description: MIC, broth microdilution (CLSI), Pseudomonas aeruginosa (27853). As to conditions: pH 3, 18 to 24 hours. The protocol:
as §1, §2

Experiment [4] relates to Candida albicans (22972). Description: MIC, broth microdilution (CLSI), Candida albicans (22972). The settings on record: pH 3, 18 to 24 hours. As to the method:
as §1, §2

In experiment [5] the test system is Escherichia coli (0102). Put plainly: MIC, broth microdilution (CLSI), Escherichia coli (0102). As to conditions: pH 4-5, 18 to 24 hours. The protocol:
as §1, §2

In experiment [6] the test system is Escherichia coli (6260). Description: MIC, broth microdilution (CLSI), Escherichia coli (6260). The settings on record: pH 4-5, 18 to 24 hours. As to the method: as §1, §2
In experiment [7] the test system is Pseudomonas aeruginosa (0103). Description: MIC, broth microdilution (CLSI), Pseudomonas aeruginosa (0103). The settings on record: pH 4-5, 18 to 24 hours. As to the method: as §1, §2
Experiment [8] has as its system Pseudomonas aeruginosa (6160). Description: MIC, broth microdilution (CLSI), Pseudomonas aeruginosa (6160). As to conditions: pH 4-5, 18 to 24 hours. The protocol:
as §1, §2

Experiment [9] has as its system Pseudomonas aeruginosa (6234). Put plainly: MIC, broth microdilution (CLSI), Pseudomonas aeruginosa (6234). The settings on record: pH 4-5, 18 to 24 hours. As to the method:
as §1, §2

Experiment [10] deals with Escherichia coli (6098). Description: MIC, broth microdilution (CLSI), Escherichia coli (6098). The settings on record: pH 4-5, 18 to 24 hours. As to the method:
as §1, §2

Experiment [11] relates to Escherichia coli (6258). Put plainly: MIC, broth microdilution (CLSI), Escherichia coli (6258). As to conditions: pH 4-5, 18 to 24 hours. The protocol: as §1, §2
Experiment [12] relates to Escherichia coli (6259). Description: MIC, broth microdilution (CLSI), Escherichia coli (6259). The settings on record: pH 4-5, 18 to 24 hours. The protocol:
as §1, §2

For experiment [13], the system named is Pseudomonas aeruginosa (6326). Put plainly: MIC, broth microdilution (CLSI), Pseudomonas aeruginosa (6326). The settings on record: pH 4-5, 18 to 24 hours. As to the method: as §1, §2
The test system of experiment [14] is Pseudomonas aeruginosa (6328). Description: MIC, broth microdilution (CLSI), Pseudomonas aeruginosa (6328). The settings on record: pH 4-5, 18 to 24 hours. As to the method: as §1, §2

SMILES strings stand for the structures.

As for `CCCCOP(=O)(O)OC[C@H]1O[C@@H](n2cnc3c(N)ncnc32)C[C@@H]1O` [LAI-017, ((2R,3S,5R)-5-(6-amino-9H-purin-9-yl)-3-hydroxytetrahydrofuran-2-yl)methyl butyl hydrogen phosphate], the minimal inhibitory concentration (MIC) in experiment [1] is 25 mg/mL; in experiment [2], 25 mg/mL; in experiment [3], 5 mg/mL; in experiment [4] it was 5 mg/mL.
As for `CCCCOP(=O)(O)OC[C@H]1O[C@@H](n2ncc3c(N)ncnc32)C[C@@H]1O` [LAI-018, ((2R, 3S, 5R)-5-(4-amino-1H-pyrazolo [3,4-d]pyrimidine-1-yl)-3-hydroxytetra hydrofuran-2-yl)methyl butyl hydrogen phosphate], the MIC in [1] came out at 25 mg/mL; in [2], 25 mg/mL; in experiment [3], 25 mg/mL; in [4], 5 mg/mL.
As to `CCCCOP(=O)(O)OC[C@H]1O[C@@H](n2cnc3cnc(N)nc32)C[C@@H]1O` [LAI-020, ((2R,3S,5R)-5-(2-amino-9H-purin-9-yl)-3-hydroxytetrahydrofuran-2-yl)-methyl butyl hydrogen phosphate], the MIC in [1] was found to be 25 mg/mL; in experiment [2], 25 mg/mL; in experiment [3], 5 mg/mL; in experiment [4], 25 mg/mL.
For the compound `CCCCOP(=O)(O)OC[C@H]1O[C@@H](n2cnc3c(=O)[nH]c(N)nc32)C[C@@H]1O` [R-4, ((2R,3S,5R)-5-(2-amino-1,9-dihydro-6H-purin-6-one-9-yl)-3-hydroxytetrahydrofuran-2-yl)-methyl butyl hydrogen phosphate], the minimal inhibitory concentration (MIC) turned out to be 50 mg/mL in [5]; 100 mg/mL in [6]; 25 mg/mL in experiment [7]; 50 mg/mL in [8]; 25 mg/mL in [9].
Regarding `CCCCOP(=O)(O)OC[C@H]1O[C@@H](n2cnc3c(=O)[nH]c(N)nc32)[C@H](OC)[C@@H]1O` [R-8, ((2R,3R,4R,5R)-5-(2-amino-1,9-dihydro-6H-purin-6-one-9-yl)-4-methoxy-3-hydroxytetrahydrofuran-2-yl)-methyl butyl hydrogen phosphate], the MIC in [5], in [6], in experiment [10], in experiment [11], in experiment [12] and in experiment [7] was 100 mg/mL each time. In addition, the MIC in [8] came out at 100 mg/mL; in experiment [9], 50 mg/mL; in experiment [13], 100 mg/mL; in experiment [14] it was 100 mg/mL.

The values above are taken from patent US20260294949A1, “SUBSTITUTED BICYCLIC HETEROCYCLE COMPOUNDS, COMPOSITIONS, AND USES THEREOF” (Lakewood Amedex, Inc., priority 2023, published 2026).
